From the supplement of paper PMC10307832

Assays:
Assay in all cases: relative viability (nuclei count vs DMSO), 5 days (fraction); higher = more cells survive
Indole-3-carbinol = compound: OCc1c[nH]c2ccccc12 [Indole-3-carbinol]
In short: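 Viability was read as treated-well nuclei divided by vehicle-well nuclei, using the median across plates. Lung cancer cell lines in 1536-well plates were kept overnight at 37 °C, pinned with five √10-spaced library-drug doses, and after 5 days were Hoechst-stained, imaged at 4× and counted in MetaXpress. Plates passed only with control CV below 25% and at least one doubling.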

[1] = compound: OCc1c[nH]c2ccccc12 [Indole-3-carbinol] + Cc1nc(NC(=O)N2CCC[C@H]2C(N)=O)sc1-c1ccnc(C(C)(C)C(F)(F)F)c1 [Alpelisib] (partner 2 µM)
In short: (§1)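 Relative viability equals treated-well nuclei counts divided by vehicle-well nuclei counts. Counts came from 4× images of lung cancer cell lines grown in 1536-well plates for 5 days after pin-tool dosing on the day after seeding. Dosing used one drug alone or a fixed anchor-drug dose plus five library-drug doses (not always all listed) in √10 steps, and values are medians of duplicate plates.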

[2] = compound: OCc1c[nH]c2ccccc12 [Indole-3-carbinol] + C[C@@H](Oc1cc(-c2cnn(C3CCNCC3)c2)cnc1N)c1c(Cl)ccc(F)c1Cl [Crizotinib] (partner 1 µM)
In short: as §1

[3] = compound: OCc1c[nH]c2ccccc12 [Indole-3-carbinol] + Cc1nc(Nc2ncc(C(=O)Nc3c(C)cccc3Cl)s2)cc(N2CCN(CCO)CC2)n1 [Dasatinib] (partner 0.075 µM)
In short: as §1

[4] = compound: OCc1c[nH]c2ccccc12 [Indole-3-carbinol] + O=C(c1cc(Cc2n[nH]c(=O)c3ccccc23)ccc1F)N1CCN(C(=O)C2CC2)CC1 [Olaparib] (partner 8 µM)
In short: as §1

NCI-H322M
relative viability (Indole-3-carbinol; 0.253 µM): 0.84
relative viability (Indole-3-carbinol; 0.8 µM): 0.973
relative viability (Indole-3-carbinol; 2.53 µM): 0.859
relative viability (Indole-3-carbinol; 8 µM): 0.866
relative viability ([1]; first compound 0.253 µM): 0.774
relative viability ([1]; first compound 0.8 µM): 0.82
relative viability ([1]; first compound 2.53 µM): 0.86
relative viability ([1]; first compound 8 µM): 0.8
relative viability ([2]; first compound 0.253 µM): 1.09
relative viability ([2]; first compound 0.8 µM): 0.989
relative viability ([2]; first compound 2.53 µM): 1
relative viability ([2]; first compound 8 µM): 0.892
relative viability ([3]; first compound 0.253 µM): 0.239
relative viability ([3]; first compound 0.8 µM): 0.245
relative viability ([3]; first compound 2.53 µM): 0.237
relative viability ([3]; first compound 8 µM): 0.255
relative viability ([4]; first compound 0.253 µM): 0.779
relative viability ([4]; first compound 0.8 µM): 0.692
relative viability ([4]; first compound 2.53 µM): 0.773
relative viability ([4]; first compound 8 µM): 0.725

NCI-H358
relative viability (Indole-3-carbinol; 0.253 µM): 0.947
relative viability (Indole-3-carbinol; 0.8 µM): 0.916
relative viability (Indole-3-carbinol; 2.53 µM): 0.917
relative viability (Indole-3-carbinol; 8 µM): 0.94
relative viability ([1]; first compound 0.253 µM): 0.773
relative viability ([1]; first compound 0.8 µM): 0.777
relative viability ([1]; first compound 2.53 µM): 0.992
relative viability ([1]; first compound 8 µM): 0.959
relative viability ([2]; first compound 0.253 µM): 0.64
relative viability ([2]; first compound 0.8 µM): 0.698
relative viability ([2]; first compound 2.53 µM): 0.735
relative viability ([2]; first compound 8 µM): 0.461
relative viability ([3]; first compound 0.253 µM): 0.146
relative viability ([3]; first compound 0.8 µM): 0.204
relative viability ([3]; first compound 2.53 µM): 0.172
relative viability ([3]; first compound 8 µM): 0.189
relative viability ([4]; first compound 0.253 µM): 0.619
relative viability ([4]; first compound 0.8 µM): 0.659
relative viability ([4]; first compound 2.53 µM): 0.717
relative viability ([4]; first compound 8 µM): 0.569

NCI-H441
relative viability (Indole-3-carbinol; 0.253 µM): 1.1
relative viability (Indole-3-carbinol; 0.8 µM): 1.28
relative viability (Indole-3-carbinol; 2.53 µM): 1.15
relative viability (Indole-3-carbinol; 8 µM): 1.11
relative viability ([1]; first compound 0.253 µM): 0.796
relative viability ([1]; first compound 0.8 µM): 0.831
relative viability ([1]; first compound 2.53 µM): 0.794
relative viability ([1]; first compound 8 µM): 0.736
relative viability ([2]; first compound 0.253 µM): 0.724
relative viability ([2]; first compound 0.8 µM): 0.609
relative viability ([2]; first compound 2.53 µM): 0.824
relative viability ([2]; first compound 8 µM): 0.76
relative viability ([3]; first compound 0.253 µM): 0.606
relative viability ([3]; first compound 0.8 µM): 0.598
relative viability ([3]; first compound 2.53 µM): 0.711
relative viability ([3]; first compound 8 µM): 0.643
relative viability ([4]; first compound 0.253 µM): 0.61
relative viability ([4]; first compound 0.8 µM): 0.685
relative viability ([4]; first compound 2.53 µM): 0.572
relative viability ([4]; first compound 8 µM): 0.496

NCI-H460
relative viability (Indole-3-carbinol; 0.253 µM): 1.04
relative viability (Indole-3-carbinol; 0.8 µM): 0.975
relative viability (Indole-3-carbinol; 2.53 µM): 0.978
relative viability (Indole-3-carbinol; 8 µM): 0.957
relative viability ([1]; first compound 0.253 µM): 0.458
relative viability ([1]; first compound 0.8 µM): 0.457
relative viability ([1]; first compound 2.53 µM): 0.563
relative viability ([1]; first compound 8 µM): 0.517
relative viability ([2]; first compound 0.253 µM): 1.03
relative viability ([2]; first compound 0.8 µM): 0.895
relative viability ([2]; first compound 2.53 µM): 0.925
relative viability ([2]; first compound 8 µM): 0.851
relative viability ([3]; first compound 0.253 µM): 0.451
relative viability ([3]; first compound 0.8 µM): 0.59
relative viability ([3]; first compound 2.53 µM): 0.499
relative viability ([3]; first compound 8 µM): 0.444
relative viability ([4]; first compound 0.253 µM): 0.38
relative viability ([4]; first compound 0.8 µM): 0.377
relative viability ([4]; first compound 2.53 µM): 0.455
relative viability ([4]; first compound 8 µM): 0.375

NCI-H520
relative viability (Indole-3-carbinol; 0.253 µM): 0.925
relative viability (Indole-3-carbinol; 0.8 µM): 0.848
relative viability (Indole-3-carbinol; 2.53 µM): 1.05
relative viability (Indole-3-carbinol; 8 µM): 0.902
relative viability ([1]; first compound 0.253 µM): 0.911
relative viability ([1]; first compound 0.8 µM): 1.07
relative viability ([1]; first compound 2.53 µM): 1.04
relative viability ([1]; first compound 8 µM): 0.849
relative viability ([2]; first compound 0.253 µM): 0.826
relative viability ([2]; first compound 0.8 µM): 0.948
relative viability ([2]; first compound 2.53 µM): 1.02
relative viability ([2]; first compound 8 µM): 0.754
relative viability ([3]; first compound 0.253 µM): 0.177
relative viability ([3]; first compound 0.8 µM): 0.245
relative viability ([3]; first compound 2.53 µM): 0.242
relative viability ([3]; first compound 8 µM): 0.183
relative viability ([4]; first compound 0.253 µM): 0.336
relative viability ([4]; first compound 0.8 µM): 0.341
relative viability ([4]; first compound 2.53 µM): 0.383
relative viability ([4]; first compound 8 µM): 0.265

NCI-H596
relative viability (Indole-3-carbinol; 0.253 µM): 1.07
relative viability (Indole-3-carbinol; 0.8 µM): 0.948
relative viability (Indole-3-carbinol; 2.53 µM): 0.967
relative viability (Indole-3-carbinol; 8 µM): 1
relative viability ([1]; first compound 0.253 µM): 0.387
relative viability ([1]; first compound 0.8 µM): 0.48
relative viability ([1]; first compound 2.53 µM): 0.417
relative viability ([1]; first compound 8 µM): 0.47
relative viability ([2]; first compound 0.253 µM): 0.876
relative viability ([2]; first compound 0.8 µM): 1.13
relative viability ([2]; first compound 2.53 µM): 0.989
relative viability ([2]; first compound 8 µM): 1
relative viability ([3]; first compound 0.253 µM): 0.649
relative viability ([3]; first compound 0.8 µM): 0.665
relative viability ([3]; first compound 2.53 µM): 0.659
relative viability ([3]; first compound 8 µM): 0.595
relative viability ([4]; first compound 0.253 µM): 0.602
relative viability ([4]; first compound 0.8 µM): 0.738
relative viability ([4]; first compound 2.53 µM): 0.451
relative viability ([4]; first compound 8 µM): 0.653

NCI-H647
relative viability (Indole-3-carbinol; 0.253 µM): 1.06
relative viability (Indole-3-carbinol; 0.8 µM): 0.703
relative viability (Indole-3-carbinol; 2.53 µM): 1.1
relative viability (Indole-3-carbinol; 8 µM): 0.948
relative viability ([1]; first compound 0.253 µM): 1.22
relative viability ([1]; first compound 0.8 µM): 1.15
relative viability ([1]; first compound 2.53 µM): 1.24
relative viability ([1]; first compound 8 µM): 1.09
relative viability ([2]; first compound 0.253 µM): 1.23
relative viability ([2]; first compound 0.8 µM): 1.13
relative viability ([2]; first compound 2.53 µM): 1.04
relative viability ([2]; first compound 8 µM): 1.01
relative viability ([3]; first compound 0.253 µM): 0.18
relative viability ([3]; first compound 2.53 µM): 0.222
relative viability ([3]; first compound 8 µM): 0.167
relative viability ([4]; first compound 0.253 µM): 0.578
relative viability ([4]; first compound 0.8 µM): 0.735
relative viability ([4]; first compound 2.53 µM): 0.693
relative viability ([4]; first compound 8 µM): 0.409

NCI-H650
relative viability (Indole-3-carbinol; 0.253 µM): 1
relative viability (Indole-3-carbinol; 0.8 µM): 1.03
relative viability (Indole-3-carbinol; 2.53 µM): 1.05
relative viability (Indole-3-carbinol; 8 µM): 0.893
relative viability ([1]; first compound 0.253 µM): 1.06
relative viability ([1]; first compound 0.8 µM): 1.18
relative viability ([1]; first compound 2.53 µM): 1.05
relative viability ([1]; first compound 8 µM): 0.953
relative viability ([2]; first compound 0.253 µM): 0.716
relative viability ([2]; first compound 0.8 µM): 0.729
relative viability ([2]; first compound 2.53 µM): 0.8
relative viability ([2]; first compound 8 µM): 0.638
relative viability ([3]; first compound 0.253 µM): 0.472
relative viability ([3]; first compound 0.8 µM): 0.488
relative viability ([3]; first compound 2.53 µM): 0.444
relative viability ([3]; first compound 8 µM): 0.447
relative viability ([4]; first compound 0.253 µM): 0.395
relative viability ([4]; first compound 0.8 µM): 0.403
relative viability ([4]; first compound 2.53 µM): 0.418
relative viability ([4]; first compound 8 µM): 0.359
